In patent US12076354B2, “Antibiotic with spirulina platensis and plant extracts” (KING FAISAL UNIVERSITY, priority 2022, dated 2024):

Experiments:
[1] = test system: multidrug resistant strain of Acinetobacter baumannii; assay: Disk diffusion susceptibility method, MDR Acinetobacter baumannii isolate; assay type: cell-based; conditions: isolated MDR strain from patients with Type 2 Diabetes Mellitus; disks with 20 μl antibiotic composition, 10 μg colistin or 15 μg Tigecycline; 2 hours at 4° C., then 37° C.
Procedure: (§1) The antibiotic composition was tested using the disk diffusion susceptibility method previously published by Bauer et al. (Bauer, A. W., et al., “Antibiotic susceptibility testing by a standardized single disk method,” Amer J Clin Pathol 45: pp. 495-496 ([…])). Briefly, a multidrug resistant strain of Acinetobacter baumannii was isolated from patients with Type 2 Diabetes Mellitus in a hospital setting in Saudi Arabia. Whatman No. 1 sterilized-paper disks were saturated with 20 μl of the antibiotic composition. Disks were then dried and placed on the surface of a medium inoculated with either the isolated MDR Acinetobacter baumannii or Acinetobacter baumannii (ATCC17978). A further test was run using either 10 μg colistin or 15 μg Tigecycline as controls. The plates containing the inoculated medium were kept for 2 hours at 4° C. to ensure the diffusion of the bioactive material, and then were incubated at 37° C. Disks containing 30 μl of water were used as a negative control.

[2] = test system: Acinetobacter baumannii (ATCC17978); assay: Disk diffusion susceptibility method, Acinetobacter baumannii ATCC17978; assay type: cell-based; conditions: disks with 20 μl antibiotic composition, 10 μg colistin or 15 μg Tigecycline, 2 hours at 4° C., then 37° C.
Procedure: as §1

Compound | zones of inhibition [1] | zones of inhibition [2]
CN(C)c1cc(NC(=O)CNC(C)(C)C)c(O)c2c1C[C@H]1C[C@H]3[C@H](N(C)C)C(O)=C(C(N)=O)C(=O)[C@@]3(O)C(O)=C1C2=O [Tigecycline] | not around the traditional antibiotic controls | not around the traditional antibiotic controls
colistin | not around the traditional antibiotic controls | not around the traditional antibiotic controls
